Assay results as given in the supplement of paper PMC10307832.

Experiments:
Assay in all cases: relative viability (nuclei count vs DMSO), 5 days (fraction); higher = more cells survive
BAY61-3606 + Dasatinib = compound: COC1=C(C=C(C=C1)C2=CC3=NC=CN3C(=N2)NC4=C(C=CC=N4)C(=O)N)OC [BAY61-3606] + Cc1nc(Nc2ncc(C(=O)Nc3c(C)cccc3Cl)s2)cc(N2CCN(CCO)CC2)n1 [Dasatinib] (partner 0.075 µM)
How it was run: (§1)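 Cells from lung cancer lines were seeded into 1536-well plates and, one day later, dosed by pin tool. Treatments were either a single drug or a fixed dose of an anchor drug with five library-drug doses (not always all listed) in √10 steps. After 5 days, nuclei were stained in a one-step fixation (final 0.05% Triton X-100, 1% formaldehyde, 1 ug/ml Hoechst) and counted on 4× images, and relative viability is the treated-to-vehicle nuclei ratio, as the median of duplicate plates.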

Doxorubicin + Trametinib = compound: COc1cccc2c1C(=O)c1c(O)c3c(c(O)c1C2=O)C[C@@](O)(C(=O)CO)C[C@@H]3O[C@H]1C[C@H](N)[C@H](O)[C@H](C)O1 [Doxorubicin] + CC(=O)Nc1cccc(-n2c(=O)n(C3CC3)c(=O)c3c(Nc4ccc(I)cc4F)n(C)c(=O)c(C)c32)c1 [Trametinib] (partner 0.02 µM)
How it was run: as §1

Doxorubicin + Foretinib = compound: COc1cccc2c1C(=O)c1c(O)c3c(c(O)c1C2=O)C[C@@](O)(C(=O)CO)C[C@@H]3O[C@H]1C[C@H](N)[C@H](O)[C@H](C)O1 [Doxorubicin] + COc1cc2c(Oc3ccc(NC(=O)C4(C(=O)Nc5ccc(F)cc5)CC4)cc3F)ccnc2cc1OCCCN1CCOCC1 [Foretinib] (partner 0.25 µM)
How it was run: as §1

Doxorubicin + Pictilisib = compound: COc1cccc2c1C(=O)c1c(O)c3c(c(O)c1C2=O)C[C@@](O)(C(=O)CO)C[C@@H]3O[C@H]1C[C@H](N)[C@H](O)[C@H](C)O1 [Doxorubicin] + CS(=O)(=O)N1CCN(Cc2cc3nc(-c4cccc5[nH]ncc45)nc(N4CCOCC4)c3s2)CC1 [Pictilisib] (partner 1 µM)
How it was run: as §1

Cell Line | relative viability (BAY61-3606 + Dasatinib; first compound 0.02 µM) | relative viability (BAY61-3606 + Dasatinib; first compound 0.06325 µM) | relative viability (BAY61-3606 + Dasatinib; first compound 0.2 µM) | relative viability (BAY61-3606 + Dasatinib; first compound 0.6325 µM) | relative viability (BAY61-3606 + Dasatinib; first compound 2 µM) | relative viability (Doxorubicin + Trametinib; first compound 0.001 µM) | relative viability (Doxorubicin + Trametinib; first compound 0.003162 µM) | relative viability (Doxorubicin + Trametinib; first compound 0.01 µM) | relative viability (Doxorubicin + Trametinib; first compound 0.03162 µM) | relative viability (Doxorubicin + Trametinib; first compound 0.1 µM) | relative viability (Doxorubicin + Foretinib; first compound 0.001 µM) | relative viability (Doxorubicin + Foretinib; first compound 0.003162 µM) | relative viability (Doxorubicin + Foretinib; first compound 0.01 µM) | relative viability (Doxorubicin + Foretinib; first compound 0.03162 µM) | relative viability (Doxorubicin + Foretinib; first compound 0.1 µM) | relative viability (Doxorubicin + Pictilisib; first compound 0.001 µM) | relative viability (Doxorubicin + Pictilisib; first compound 0.003162 µM) | relative viability (Doxorubicin + Pictilisib; first compound 0.01 µM) | relative viability (Doxorubicin + Pictilisib; first compound 0.03162 µM) | relative viability (Doxorubicin + Pictilisib; first compound 0.1 µM)
HCC-78 | 0.363 | 0.362 | 0.379 | 0.48 | 0.694 | 0.723 | 0.85 | 0.735 | 0.668 | 0.66 | 0.577 | 0.627 | 0.528 | 0.517 | 0.499 | 0.208 | 0.216 | 0.219 | 0.196 | 0.0644
HOP-62 | 0.744 | 0.729 | 0.691 | 0.844 | 0.634 | 0.373 | 0.389 | 0.413 | 0.411 | 0.373 | 1.05 | 1.07 | 1.06 | 1.11 | 1.16 | 0.315 | 1.03 | 0.782 | 0.553 | 0.717
NCI-H1623 | 0.556 | 0.557 | 0.533 | 0.522 | 0.501 | – | – | – | – | – | 0.766 | 0.815 | 0.895 | 0.798 | 0.78 | – | – | – | – | –
NCI-H3122 | 0.838 | 0.882 | 0.736 | 0.897 | 0.691 | 0.201 | 0.223 | 0.229 | 0.185 | 0.264 | 0.959 | 0.918 | 0.944 | 0.942 | 0.904 | 0.507 | 0.62 | 0.566 | 0.527 | 0.611
NCI-H1666 | 0.841 | 0.804 | 0.813 | 0.742 | 0.652 | – | 0.796 | 0.65 | 0.584 | 0.517 | 0.964 | 0.872 | 0.792 | 0.5 | 0.468 | 0.376 | 0.37 | 0.309 | 0.237 | 0.271
HARA | 0.168 | 0.233 | 0.323 | 0.245 | 0.28 | 0.544 | 0.575 | 0.799 | 0.471 | 0.647 | 0.791 | 0.946 | 0.779 | 0.816 | 0.866 | 0.444 | 0.439 | 0.434 | 0.357 | 0.294
NCI-H1651 | 0.379 | 0.459 | 0.387 | 0.32 | 0.318 | 0.82 | 0.843 | 0.817 | 0.707 | 0.796 | 0.842 | 0.929 | 0.737 | 0.48 | 0.222 | 0.608 | 0.437 | 0.412 | 0.138 | 0.107
NCI-H1395 | 0.385 | 0.404 | 0.387 | 0.383 | 0.399 | 0.929 | 0.948 | 0.964 | 0.971 | 0.867 | 0.949 | 1.05 | 0.953 | 0.892 | 0.92 | 0.682 | 0.623 | 0.648 | 0.628 | 0.421
SK-LU-1 | 0.2 | 0.148 | 0.148 | 0.169 | 0.152 | 0.375 | 0.528 | 0.445 | 0.361 | 0.282 | 0.85 | 0.812 | 0.76 | 0.507 | 0.333 | 0.571 | 0.562 | 0.434 | 0.324 | 0.303
LXF-289 | 0.261 | 0.205 | 0.187 | 0.187 | 0.129 | 0.666 | 0.697 | 0.675 | 0.723 | 0.738 | 0.958 | 0.975 | 0.97 | 1.09 | 0.98 | 0.698 | 0.772 | 0.716 | 0.783 | 0.745
NCI-H1437 | 0.382 | 0.355 | 0.391 | 0.382 | 0.403 | 0.564 | 0.609 | 0.46 | 0.363 | 0.26 | 1.16 | 1.26 | 1.24 | 1.1 | 0.621 | 0.541 | 0.443 | 0.363 | 0.122 | 0.143
HCC-827 | 0.332 | 0.328 | 0.363 | 0.315 | 0.24 | 0.549 | 0.526 | 0.533 | 0.509 | 0.486 | 1.07 | 1 | 1.05 | 0.984 | 0.982 | 0.851 | 1.01 | 0.985 | 0.993 | 0.935
NCI-H1650 | 0.304 | 0.261 | 0.3 | 0.296 | 0.245 | 0.56 | 0.532 | 0.433 | 0.218 | 0.144 | 0.967 | 1.38 | 0.859 | 0.291 | 0.181 | 0.29 | 0.371 | 0.241 | 0.159 | 0.119
HCC-15 | 0.696 | 0.59 | 0.592 | 0.551 | 0.483 | 0.381 | 0.395 | 0.393 | 0.379 | 0.407 | – | 0.922 | 0.94 | 0.49 | 0.404 | 0.663 | 0.759 | 0.614 | 0.467 | 0.478
EKVX | 0.602 | 0.455 | 0.436 | 0.58 | 0.297 | 0.384 | 0.317 | 0.368 | 0.39 | 0.361 | 0.735 | 0.891 | 0.912 | 0.831 | 0.704 | 0.453 | 0.444 | 0.399 | 0.434 | 0.429
NCI-H2126 | 0.676 | 0.599 | 0.573 | 0.567 | 0.356 | 0.6 | 0.572 | 0.561 | 0.526 | 0.601 | 1.29 | 1.12 | 0.884 | 1.12 | 1.28 | 0.494 | 0.523 | 0.501 | 0.49 | 0.517
